Assay [1] has as its target T1, cGAS (Homo sapiens, UniProt Q8N884). Briefly: In vitro inhibition assay of cGAS activity (cGAMP production, RapidFire mass spectrometry). Format: biochemical. More on the design: Insert cDNA encoding full-length of human cGAS; His6; made in house; host or cells: E. coli BL21(DE3). The following applies: 10 nM recombinant human cGAS, 60 nM 75-bp dsDNA, 50 μM ATP, 50 μM GTP, 3 hrs. How it is done:
Expression and Purification of Recombinant cGAS Protein: Insert cDNA encoding full-length of human cGAS into a modified bacterial expression vector containing an in-frame His6-tag. Induce the E. coli strain BL21(DE3) harboring the plasmid with 1 mM IPTG (Isopropyl β-D-1-thiogalactopyranoside) at 18° C. overnight. Purify the His6-tagged cGAS protein over HISpur Ni-NTA resin in the presence of benzonase and RNase followed by Superdex 200 size exclusion chromatography with storage buffer (50 mM Tris-HCl pH 7.5, 300 mM NaCl, 1 mM DTT, 10% glycerol).
In vitro inhibition assay of cGAS activity: Add a 5 μL mixture containing 10 mM Tris-Cl pH 7.5, 50 mM NaCl, 5 mM MgCl2, 1 mM DTT, 0.01% Triton X-100, 60 nM 75-bp dsDNA, 50 μM ATP, 50 μM GTP, 10 nM of recombinant human cGAS, and serial dilutions of a test compound in DMSO to a 384-well plate and incubate at ambient temperature for 3 hrs. Quench the reaction by the addition of 100 μL of stop solution containing 0.1% formic acid and 0.1 μM internal standard (3′3′-difluoro cGAMP). Measure the amount of cGAMP produced by RapidFire 365 mass spectrometry and evaluate inhibitory effect of a compound by plotting percent specific inhibition of cGAMP production against log concentration of the test compound. Calculate IC50 values using a 4-parameter non-linear logistic equation (y=(S0+((Sinf−S0)/(1+((qAC50/x)^nHill))))).

Assay [2] addresses T1, cGAS. Briefly: Cellular assay to measure cGAS activity (IFNb AlphaLISA in THP1 cells stimulated by RDG-Adenovirus-GFP). It counts as cell-based. Set-up: host or cells: THP1 cells differentiated with PMA and stimulated with RDG-Adenovirus-GFP. The following applies: PMA-differentiated THP1 cells, RDG-Adenovirus-GFP at 1000 MOI; inhibition of IFNb production as marker for cGAS activity. As to the method: Cellular assay to measure cGAS activity: Use THP1 cell line from ATCC to determine inhibition of cGAS activity by test compounds in human cells. Plate cells on 96-well plates at 0.2×10^6/well and differentiate with phorbol myristate acetate (PMA) at 37° C./5% CO2. After 24 hours, replace PMA containing media with media lacking PMA and further incubate overnight. Stimulate cells were then by RDG-Adenovirus-GFP (Vector Biolabs #1768) at 1000 MOI for 4 hours prior to the addition of test compounds. After overnight incubation, transfer 10 μL of the media from each well to a new plate for IFNb analysis as a marker for cGAS activity. Measure quantification of IFNb with an IFNb AlphaLISA Detection kit (Perkin Elmer AL3133F) by mixing the acceptor beads with the cell supernatant followed by the addition of the biotinylated antibody and donor beads. Measure the relative fluorescence signal produced from the interaction of the donor and acceptor beads by a PHERAStar AlphaLISA protocol and evaluate the inhibitory effect of a compound by plotting specific inhibition of IFNb production against log concentration of the test compound. Calculate IC50 values using a 4-parameter non-linear logistic equation (y=(S0+((SInf−S0)/(1+((qAC50/x)^nHill))))).
Background: Bead proximity is the source of the signal in Alpha formats.

IC50 data for 24 molecules are collected here from patent US20240246979A1, “cGAS INHIBITORS” (Eli Lilly and Company, priority 2022, published 2024).

A word on the IC50: it is the concentration that gives 50% inhibition.

T1 sequence (Q8N884 whole entry): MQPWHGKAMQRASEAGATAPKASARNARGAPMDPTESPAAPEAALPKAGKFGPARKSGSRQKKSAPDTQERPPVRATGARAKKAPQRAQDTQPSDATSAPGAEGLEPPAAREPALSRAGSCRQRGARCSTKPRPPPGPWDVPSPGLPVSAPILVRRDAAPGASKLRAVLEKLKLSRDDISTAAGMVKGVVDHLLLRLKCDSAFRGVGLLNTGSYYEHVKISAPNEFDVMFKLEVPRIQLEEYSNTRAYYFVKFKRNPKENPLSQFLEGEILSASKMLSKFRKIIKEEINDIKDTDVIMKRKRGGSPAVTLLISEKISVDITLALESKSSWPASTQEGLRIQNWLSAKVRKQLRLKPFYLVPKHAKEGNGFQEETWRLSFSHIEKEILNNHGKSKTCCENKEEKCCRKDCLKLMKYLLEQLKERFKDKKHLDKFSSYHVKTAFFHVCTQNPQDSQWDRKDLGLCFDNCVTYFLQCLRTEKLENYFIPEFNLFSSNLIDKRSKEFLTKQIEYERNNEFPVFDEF

As for `CC[C@H]1C(=O)NCCc2[nH]c3c(Cl)c(Cl)cc(OCC#N)c3c21` (single isomer, unassigned) [Example 36], the IC50 stood at 3950 nM on cGAS [1] and 1200 nM at cGAS [2].
On the same counts, the results for `C[C@H](O)COc1cc(Cl)c(Cl)c2[nH]c3c(c12)[C@H](C)C(=O)NCC3` (single isomer, unassigned) [Example 85] are 2770 nM and 7260 nM.
In the same order, the values of `CN(C)CCC1CNC(=O)Cc2c1[nH]c1c(Cl)c(Cl)cc(-c3cnn(C)n3)c21` (stereo not shown) [Example 118, 7,8-Dichloro-5-(2-(dimethylamino)ethyl)-10-(2-methyl-2H-1,2,3-triazol-4-yl)-3,4,5,6-tetrahydroazepino[4,5-b]indol-2(1H)-one] are 42.4 nM and 577 nM.
On the same counts, the results for `CC(C)(O)C[C@@H]1CNC(=O)Cc2c1[nH]c1c(Cl)c(Cl)cc(OCC#N)c21` (single isomer, unassigned) [Example 109] are 159 nM and 1860 nM.
Take `C[C@@H]1C(=O)NCCc2[nH]c3c(Cl)c(Cl)cc(OCC#N)c3c21` (single isomer, unassigned) [Example 16B]: the IC50 at cGAS [1] worked out at 998 nM; against cGAS [2], 1010 nM.
On the same counts, the results for `CC1C(=O)NCCc2[nH]c3c(Cl)c(Cl)cc(NCC(F)F)c3c21` (stereo not shown) [Example 70, 7,8-Dichloro-10-((2,2-difluoroethyl)amino)-1-methyl-3,4,5,6-tetrahydroazepino[4,5-b]indol-2(1H)-one] are 30.5 nM and 1290 nM.
In the same order, the values of `C[C@@H]1C(=O)NCCc2c1c1c(NC(=O)CO)cc(Cl)c(Cl)c1n2C` (single isomer, unassigned) [Example 93] are 2760 nM and over 10000 nM.
On the same counts, the results for `CC(O)CC1CNC(=O)Cc2c1n(C)c1c(Cl)c(Cl)cc(CC#N)c21` (mixture of isomers) [Example 128, 2-(7,8-Dichloro-5-(2-hydroxypropyl)-6-methyl-2-oxo-1,2,3,4,5,6-hexahydroazepino[4,5-b]indol-10-yl)acetonitrile] are 13.6 nM and 217 nM.
As for `CC1C(=O)NCCc2c1c1c(NCc3cnc[nH]3)cc(Cl)c(Cl)c1n2C` (stereo not shown) [Example 91, 10-(((1H-Imidazol-5-yl)methyl)amino)-7,8-dichloro-1,6-dimethyl-3,4,5,6-tetrahydroazepino[4,5-b]indol-2(1H)-one], the IC50 was 20.7 nM on cGAS [1] and 1190 nM on cGAS [2].
In the same order, the values of `C[C@H](O)C(=O)Nc1cc(Cl)c(Cl)c2c1c1c(n2C(F)F)CCNC(=O)[C@H]1C` (single isomer, unassigned) [Example 143] are 1510 nM and over 10000 nM.
Turning to `C[C@H]1C(=O)NCCc2[nH]c3c(Cl)c(Cl)cc(NCCCO)c3c21` (single isomer, unassigned) [Example 54], the figures for the IC50 on cGAS [1] and on cGAS [2] were 4250 nM and 5660 nM, respectively.
On the same counts, the results for `COCC[C@@H]1CNC(=O)Cc2c1[nH]c1c(Cl)c(Cl)cc(-c3cnn(C)n3)c21` (single isomer, unassigned) [Example 167] are 12.8 nM and 624 nM.
In the same order, the values of `NC(=O)COc1cc(Cl)c(Cl)c2[nH]c3c(c12)CC(=O)NCC3` [Example 20, 2-((7,8-Dichloro-2-oxo-1,2,3,4,5,6-hexahydroazepino[4,5-b]indol-10-yl)oxy)acetamide] are 132 nM and over 10000 nM.
For the molecule `COCC[C@H]1CNC(=O)Cc2c1[nH]c1c(Cl)c(Cl)cc(-c3cnn(C)n3)c21` (single isomer, unassigned) [Example 168], the concentration for half-maximal inhibition (IC50) was 109 nM at cGAS [1] and 4600 nM at cGAS [2].
In the same order, the values of `CC1C(=O)NCCc2[nH]c3c(Cl)c(Cl)cc(NCCO)c3c21` (racemic) [Example 49, 7,8-Dichloro-10-((2-hydroxyethyl)amino)-1-methyl-3,4,5,6-tetrahydroazepino[4,5-b]indol-2(1H)-one] are 15 nM and 390 nM.
On the same counts, the results for `C[C@@H]1C(=O)NCCc2c1c1c(NC(=O)CO)cc(Cl)c(Cl)c1n2CC(F)(F)F` (single isomer, unassigned) [Example 187, (S)—N-(7,8-Dichloro-1-methyl-2-oxo-6-(2,2,2-trifluoroethyl)-1,2,3,4,5,6-hexahydroazepino[4,5-b]indol-10-yl)-2-hydroxyacetamide or (R)—N-(7,8-Dichloro-1-methyl-2-oxo-6-(2,2,2-trifluoroethyl)-1,2,3,4,5,6-hexahydroazepino[4,5-b]indol-10-yl)-2-hydroxyacetamide] are over 39800 nM and over 10000 nM.
On the same counts, the results for `CC1Cc2[nH]c3c(Cl)c(Cl)cc(NCCO)c3c2CC(=O)N1` (stereo not shown) [Example 165, 7,8-Dichloro-10-((2-hydroxyethyl)amino)-4-methyl-3,4,5,6-tetrahydroazepino[4,5-b]indol-2(1H)-one] are 44.2 nM and 1730 nM.
Regarding `COCCOc1cc(Cl)c(Cl)c2[nH]c3c(c12)[C@H](C)C(=O)NCC3(C)C` (single isomer, unassigned) [Example 185, (S)-7,8-Dichloro-10-(2-methoxyethoxy)-1,5,5-trimethyl-3,4,5,6-tetrahydroazepino[4,5-b]indol-2(1H)-one or (R)-7,8-Dichloro-10-(2-methoxyethoxy)-1,5,5-trimethyl-3,4,5,6-tetrahydroazepino[4,5-b]indol-2(1H)-one], the IC50 on cGAS [1] is 1890 nM; at cGAS [2] it was over 10000 nM.
For `CC1C(=O)NCCc2[nH]c3c(Cl)c(Cl)cc(NCCO)c3c21` (single isomer, unassigned) [Example 50, 7,8-Dichloro-10-((2-hydroxyethyl)amino)-1-methyl-3,4,5,6-tetrahydroazepino[4,5-b]indol-2(1H)-one], the IC50 at cGAS [1] worked out at 9.62 nM; at cGAS [2], 286 nM.
On the same counts, the results for `Nc1noc(-c2cc(Cl)c(Cl)c3[nH]c4c(c23)CC(=O)NCC4)n1` [Example 33, 10-(3-Amino-1,2,4-oxadiazol-5-yl)-7,8-dichloro-3,4,5,6-tetrahydroazepino[4,5-b]indol-2(1H)-one] are 20.4 nM and 1200 nM.
In the same order, the values of `N#CCOc1cc(Cl)c(Cl)c2c1c1c3n2CCC3CNC(=O)C1` (stereo not shown) [Example 115, 2-((8,9-Dichloro-2-oxo-2,3,4,4a, 5,6-hexahydro-1H-azepino[3,4,5-gh]benzo[b]pyrrolizin-11-yl)oxy)acetonitrile] are 22.4 nM and 1950 nM.
On the same counts, the results for `CC1C(=O)NCCc2[nH]c3c(Cl)c(Cl)cc(OCCF)c3c21` (stereo not shown) [Example 75, 7,8-Dichloro-10-(2-fluoroethoxy)-1-methyl-3,4,5,6-tetrahydroazepino[4,5-b]indol-2(1H)-one] are 19 nM and 1150 nM.
As for `Cn1c2c(c3c(OCC#N)cc(Cl)c(Cl)c31)CC(=O)NCC2` [Example 21, 2-((7,8-Dichloro-6-methyl-2-oxo-1,2,3,4,5,6-hexahydroazepino[4,5-b]indol-10-yl)oxy)acetonitrile], the IC50 on cGAS [1] is 141 nM.
Regarding `Cn1ccc(-c2cc(Cl)c(Cl)c3[nH]c4c(c23)CC(=O)NCC4)n1` [Example 3, 7,8-Dichloro-10-(1-methyl-1H-pyrazol-3-yl)-3,4,5,6-tetrahydroazepino[4,5-b]indol-2(1H)-one], the IC50 on cGAS [1] amounted to 111 nM.
